Data: ChEMBL document CHEMBL1201862, “PubChem BioAssay data set” (2004)
Structures can show the parent of a compound that is named as a salt. Blank lines part the entries; values can stand above or below the compound they belong to. Calls of active or inactive are those of the source.

How the values were obtained:
[1] = biological target: T1, Ubiquitin-conjugating enzyme E2 N (Homo sapiens, UniProt P61088); format: functional;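 note: Dose-response confirmation in a TR-FRET assay detecting UBC13-driven polyubiquitin chain formation, inhibition measured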
T1 sequence (P61088 whole entry): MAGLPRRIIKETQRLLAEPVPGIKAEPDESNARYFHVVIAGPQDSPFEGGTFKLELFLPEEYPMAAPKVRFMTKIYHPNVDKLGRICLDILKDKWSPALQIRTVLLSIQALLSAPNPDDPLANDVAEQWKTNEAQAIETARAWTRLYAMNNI

[2] = biological target: T2, Fatty acid synthase (Homo sapiens, UniProt P49327); assay: inhibition of human FAS-TE enzyme activity – biochemical, kinetic fluorescence intensity, dose response (AID 624326); format: functional;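 note: rate of fluorescence rise from hydrolysis of a fluorogenic O-methyl fluorescein ester substrate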
T2 sequence (P49327 whole entry): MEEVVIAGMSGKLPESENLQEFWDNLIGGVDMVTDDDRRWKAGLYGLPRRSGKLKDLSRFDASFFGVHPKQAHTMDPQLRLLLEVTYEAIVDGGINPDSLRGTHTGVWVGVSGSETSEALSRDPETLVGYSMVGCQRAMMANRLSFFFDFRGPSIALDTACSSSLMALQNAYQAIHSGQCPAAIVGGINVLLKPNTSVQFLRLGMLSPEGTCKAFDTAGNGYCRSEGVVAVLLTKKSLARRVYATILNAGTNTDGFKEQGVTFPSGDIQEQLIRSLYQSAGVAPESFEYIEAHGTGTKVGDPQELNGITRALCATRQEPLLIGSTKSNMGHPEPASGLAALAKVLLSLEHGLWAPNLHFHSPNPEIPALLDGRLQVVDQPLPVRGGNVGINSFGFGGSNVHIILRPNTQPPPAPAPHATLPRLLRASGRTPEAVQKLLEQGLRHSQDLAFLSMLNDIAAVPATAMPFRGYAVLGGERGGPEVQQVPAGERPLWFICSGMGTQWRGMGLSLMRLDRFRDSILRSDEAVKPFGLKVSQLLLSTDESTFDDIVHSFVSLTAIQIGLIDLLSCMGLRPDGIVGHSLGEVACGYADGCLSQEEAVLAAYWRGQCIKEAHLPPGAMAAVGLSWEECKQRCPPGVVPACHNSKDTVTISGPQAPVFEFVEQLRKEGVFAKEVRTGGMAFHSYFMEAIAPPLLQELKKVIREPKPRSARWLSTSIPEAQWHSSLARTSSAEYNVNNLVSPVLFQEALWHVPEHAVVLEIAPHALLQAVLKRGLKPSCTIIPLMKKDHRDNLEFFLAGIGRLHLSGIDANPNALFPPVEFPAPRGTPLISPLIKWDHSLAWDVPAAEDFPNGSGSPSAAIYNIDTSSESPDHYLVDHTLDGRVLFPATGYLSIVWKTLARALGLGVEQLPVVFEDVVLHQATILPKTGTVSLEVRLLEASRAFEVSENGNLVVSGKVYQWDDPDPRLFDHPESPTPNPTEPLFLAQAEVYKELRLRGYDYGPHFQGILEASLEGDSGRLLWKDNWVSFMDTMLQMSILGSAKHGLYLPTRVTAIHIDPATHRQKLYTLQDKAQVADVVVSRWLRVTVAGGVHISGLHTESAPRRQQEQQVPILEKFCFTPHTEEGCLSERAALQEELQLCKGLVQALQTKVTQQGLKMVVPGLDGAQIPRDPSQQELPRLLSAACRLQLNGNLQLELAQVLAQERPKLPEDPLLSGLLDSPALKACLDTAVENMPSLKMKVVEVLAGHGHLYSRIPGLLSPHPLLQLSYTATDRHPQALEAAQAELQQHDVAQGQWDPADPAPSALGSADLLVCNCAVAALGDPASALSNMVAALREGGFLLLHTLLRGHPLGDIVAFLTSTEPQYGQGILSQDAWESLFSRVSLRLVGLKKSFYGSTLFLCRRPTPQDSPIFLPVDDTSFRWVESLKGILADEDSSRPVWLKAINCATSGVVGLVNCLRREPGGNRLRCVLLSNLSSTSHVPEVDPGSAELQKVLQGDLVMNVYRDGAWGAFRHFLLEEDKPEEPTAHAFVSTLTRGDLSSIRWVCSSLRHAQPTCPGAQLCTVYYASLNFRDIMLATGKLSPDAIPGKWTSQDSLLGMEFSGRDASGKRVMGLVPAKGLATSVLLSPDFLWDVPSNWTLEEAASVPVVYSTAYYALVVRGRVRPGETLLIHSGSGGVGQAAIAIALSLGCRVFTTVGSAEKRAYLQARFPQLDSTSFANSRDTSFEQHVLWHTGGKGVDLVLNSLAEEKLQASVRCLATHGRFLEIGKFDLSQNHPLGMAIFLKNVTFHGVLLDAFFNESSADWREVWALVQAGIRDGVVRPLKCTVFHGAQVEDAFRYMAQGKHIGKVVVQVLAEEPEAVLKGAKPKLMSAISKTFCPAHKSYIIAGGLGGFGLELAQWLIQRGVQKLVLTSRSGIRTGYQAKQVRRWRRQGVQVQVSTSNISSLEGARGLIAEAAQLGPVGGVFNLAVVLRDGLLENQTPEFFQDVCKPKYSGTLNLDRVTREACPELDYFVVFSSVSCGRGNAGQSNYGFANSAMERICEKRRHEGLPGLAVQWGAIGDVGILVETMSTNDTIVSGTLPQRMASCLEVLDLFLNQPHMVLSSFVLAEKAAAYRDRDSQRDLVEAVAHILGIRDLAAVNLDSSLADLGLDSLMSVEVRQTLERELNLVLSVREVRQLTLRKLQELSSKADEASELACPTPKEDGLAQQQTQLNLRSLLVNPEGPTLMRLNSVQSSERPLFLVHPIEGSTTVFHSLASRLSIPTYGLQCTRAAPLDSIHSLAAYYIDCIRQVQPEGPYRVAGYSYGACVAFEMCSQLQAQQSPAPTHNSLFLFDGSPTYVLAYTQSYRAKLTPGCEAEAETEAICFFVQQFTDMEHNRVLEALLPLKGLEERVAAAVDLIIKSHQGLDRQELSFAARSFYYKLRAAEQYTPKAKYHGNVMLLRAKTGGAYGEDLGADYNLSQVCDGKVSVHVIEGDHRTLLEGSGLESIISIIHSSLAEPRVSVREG

[3] = biological target: T2, Fatty acid synthase; assay: inhibition of human FAS-TE enzyme activity – biochemical, endpoint fluorescence intensity, uHTS hits, dose response (AID 624327); format: functional;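 note: fluorescence from hydrolysis of an O-methyl fluorescein acyl ester substrate by the enzyme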
[4] = biological target: T3, Carboxy-terminal domain RNA polymerase II polypeptide A small phosphatase 1 (Homo sapiens, UniProt Q9GZU7); assay: CTDSP1 inhibitors, concentration-response, biochemical, absorbance readout, ultra-high-throughput screen actives (AID 540297); format: functional
T3 sequence (Q9GZU7 whole entry): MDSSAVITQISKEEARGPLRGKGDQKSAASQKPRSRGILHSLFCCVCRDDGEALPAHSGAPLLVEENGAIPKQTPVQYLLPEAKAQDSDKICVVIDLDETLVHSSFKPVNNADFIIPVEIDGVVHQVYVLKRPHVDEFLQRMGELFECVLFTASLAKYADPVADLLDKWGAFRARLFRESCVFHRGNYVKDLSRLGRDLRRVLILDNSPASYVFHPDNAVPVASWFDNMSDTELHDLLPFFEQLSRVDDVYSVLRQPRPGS

[5] = biological target: Luciferin 4-monooxygenase (Photinus pyralis, UniProt P08659); assay: inhibition of purified Photinus pyralis luciferase – biochemical, luminescence, dose response (AID 1891)
Luciferin 4-monooxygenase, sequence (P08659 whole entry): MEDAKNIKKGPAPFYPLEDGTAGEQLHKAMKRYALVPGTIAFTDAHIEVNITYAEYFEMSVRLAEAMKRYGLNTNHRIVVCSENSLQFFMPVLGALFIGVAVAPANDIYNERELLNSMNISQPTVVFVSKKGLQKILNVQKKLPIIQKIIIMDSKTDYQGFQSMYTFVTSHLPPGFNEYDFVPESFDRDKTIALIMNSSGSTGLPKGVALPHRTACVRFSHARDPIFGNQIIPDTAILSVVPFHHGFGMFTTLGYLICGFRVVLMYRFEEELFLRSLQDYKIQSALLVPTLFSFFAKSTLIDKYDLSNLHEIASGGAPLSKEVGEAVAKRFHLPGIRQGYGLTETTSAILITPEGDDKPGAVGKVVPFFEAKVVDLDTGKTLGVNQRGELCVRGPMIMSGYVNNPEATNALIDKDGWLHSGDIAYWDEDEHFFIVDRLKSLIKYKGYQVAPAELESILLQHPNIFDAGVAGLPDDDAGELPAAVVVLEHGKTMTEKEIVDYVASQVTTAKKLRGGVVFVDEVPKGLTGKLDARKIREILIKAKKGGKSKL

[6] = Luminescence Cell-Based Dose Confirmation HTS to Identify Inhibitors of Platelet Dense Granule Release. [Related pubchem assays: 1663 (Primary HTS), 1678 (Summary of Project)]; format: functional
[7] = biological target: T4, Corticotropin-releasing factor receptor 2/Corticotropin-releasing factor-binding protein (Homo sapiens, UniProt P24387+Q13324); assay: Dose Response confirmation of uHTS hits for small molecule antagonists of the CRF-binding protein and CRF-R2 receptor complex.; format: functional; conditions: read-out: IC50_Mean
T4 sequence (Q13324 whole entry): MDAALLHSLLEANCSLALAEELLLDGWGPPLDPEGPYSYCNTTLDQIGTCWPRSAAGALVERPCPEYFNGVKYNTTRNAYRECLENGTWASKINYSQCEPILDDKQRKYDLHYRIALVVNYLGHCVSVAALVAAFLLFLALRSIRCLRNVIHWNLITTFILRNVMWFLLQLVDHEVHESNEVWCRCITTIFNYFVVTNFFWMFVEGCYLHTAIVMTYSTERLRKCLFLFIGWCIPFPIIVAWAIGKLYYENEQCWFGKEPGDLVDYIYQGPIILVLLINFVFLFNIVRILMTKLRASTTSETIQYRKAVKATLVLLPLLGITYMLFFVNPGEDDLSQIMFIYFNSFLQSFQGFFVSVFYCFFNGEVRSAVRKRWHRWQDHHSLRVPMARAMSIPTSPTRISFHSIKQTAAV
T4 sequence (P24387 whole entry): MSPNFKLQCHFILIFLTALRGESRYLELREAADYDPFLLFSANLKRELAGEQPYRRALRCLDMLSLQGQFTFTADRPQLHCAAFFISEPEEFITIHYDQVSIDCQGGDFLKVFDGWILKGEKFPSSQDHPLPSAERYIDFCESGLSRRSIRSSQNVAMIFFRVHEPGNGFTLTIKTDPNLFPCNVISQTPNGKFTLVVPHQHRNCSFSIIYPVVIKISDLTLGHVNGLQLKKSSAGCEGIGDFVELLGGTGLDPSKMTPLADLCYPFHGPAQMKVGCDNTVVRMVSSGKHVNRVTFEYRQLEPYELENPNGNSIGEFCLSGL

[8] = biological target: T5, RNA-binding protein pos-1 (Caenorhabditis elegans, UniProt G5EF15); assay: disruptors of C. elegans POS-1 RNA interaction – biochemical, fluorescence polarization, dose response (AID 1964);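 note: purified POS-1 fused to maltose binding protein made in E. coli; potency of compounds blocking POS-1 binding to fluorescent RNA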
T5 sequence (G5EF15 whole entry): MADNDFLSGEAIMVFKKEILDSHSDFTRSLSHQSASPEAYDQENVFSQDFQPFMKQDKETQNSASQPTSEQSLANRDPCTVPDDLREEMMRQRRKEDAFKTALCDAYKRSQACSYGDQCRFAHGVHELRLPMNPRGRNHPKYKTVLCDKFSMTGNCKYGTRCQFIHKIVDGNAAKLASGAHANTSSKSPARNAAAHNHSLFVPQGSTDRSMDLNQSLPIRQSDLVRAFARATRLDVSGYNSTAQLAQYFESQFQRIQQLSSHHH

[9] = biological target: T6, Zinc finger protein mex-5 (Caenorhabditis elegans, UniProt Q9XUB2); assay: potency of MEX-5 RNA-binding blockers – biochemical, C. elegans, fluorescence polarization, dose response (AID 1960)
T6 sequence (Q9XUB2 whole entry): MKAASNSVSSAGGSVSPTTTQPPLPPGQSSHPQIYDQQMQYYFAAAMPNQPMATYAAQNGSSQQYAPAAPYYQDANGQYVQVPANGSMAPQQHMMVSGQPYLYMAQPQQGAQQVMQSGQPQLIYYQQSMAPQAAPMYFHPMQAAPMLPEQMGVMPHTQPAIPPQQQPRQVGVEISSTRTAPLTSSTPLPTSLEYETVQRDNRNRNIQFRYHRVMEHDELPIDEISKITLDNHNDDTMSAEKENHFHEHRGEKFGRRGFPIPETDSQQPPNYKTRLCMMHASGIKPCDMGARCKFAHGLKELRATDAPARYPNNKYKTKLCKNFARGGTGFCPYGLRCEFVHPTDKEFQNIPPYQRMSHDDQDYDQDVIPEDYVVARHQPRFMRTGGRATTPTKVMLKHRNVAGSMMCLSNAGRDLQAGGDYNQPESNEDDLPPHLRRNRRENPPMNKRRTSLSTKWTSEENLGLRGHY

[10] = tested on: H9c2; assay: cells; format: functional, cell-based; conditions: Rattus norvegicus, H9c2, Myocardium;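 note: confirmatory concentration-response retest of ultra-high-throughput screening hits for modulation of myocardial damage; cell death induced by hydrogen peroxide oxidative stress; compound pretreatment for 60 min then peroxide exposure for 2 h; potency is for protecting the cells against peroxide damage rather than for killing them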
[11] = biological target: T4, Corticotropin-releasing factor receptor 2/Corticotropin-releasing factor-binding protein; assay: activators of CRF receptor 2 with binding protein – uHTS hits, confirmation (AID 602473); format: functional; conditions: read-out: EC50_Mean
[12] = general mammalian cell viability loss – inhibitor set, cherry-pick, set 2, cytotoxicity control for miR-122 modulator project, dose response (AID 720697); format: functional, cell-based
[13] = biological target: T7, Mannose-6-phosphate isomerase (Homo sapiens, UniProt P34949); assay: MPI inhibition at elevated mannose 6-phosphate – biochemical, fluorescence intensity, high mannose 6-phosphate, primary screen (AID 1220)
T7 sequence (P34949 whole entry): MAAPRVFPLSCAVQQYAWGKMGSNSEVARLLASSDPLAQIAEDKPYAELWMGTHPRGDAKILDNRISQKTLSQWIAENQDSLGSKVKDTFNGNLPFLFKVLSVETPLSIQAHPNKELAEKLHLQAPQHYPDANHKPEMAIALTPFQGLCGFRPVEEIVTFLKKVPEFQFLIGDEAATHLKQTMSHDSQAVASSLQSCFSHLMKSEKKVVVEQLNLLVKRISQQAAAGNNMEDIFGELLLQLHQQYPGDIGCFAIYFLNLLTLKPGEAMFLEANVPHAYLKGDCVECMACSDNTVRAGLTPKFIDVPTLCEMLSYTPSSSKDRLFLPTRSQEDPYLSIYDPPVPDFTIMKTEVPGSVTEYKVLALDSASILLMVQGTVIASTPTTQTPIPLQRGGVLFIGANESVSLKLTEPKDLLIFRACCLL

[14] = P. falciparum Dd2 growth inhibitors, dose response, SYBR Green, cherry-picked samples (AID 1159567); format: functional, cell-based
[15] = biological target: T8, DNA repair protein RAD52 homolog (Homo sapiens, UniProt P43351); format: functional, biochemical
T8 sequence (P43351 whole entry): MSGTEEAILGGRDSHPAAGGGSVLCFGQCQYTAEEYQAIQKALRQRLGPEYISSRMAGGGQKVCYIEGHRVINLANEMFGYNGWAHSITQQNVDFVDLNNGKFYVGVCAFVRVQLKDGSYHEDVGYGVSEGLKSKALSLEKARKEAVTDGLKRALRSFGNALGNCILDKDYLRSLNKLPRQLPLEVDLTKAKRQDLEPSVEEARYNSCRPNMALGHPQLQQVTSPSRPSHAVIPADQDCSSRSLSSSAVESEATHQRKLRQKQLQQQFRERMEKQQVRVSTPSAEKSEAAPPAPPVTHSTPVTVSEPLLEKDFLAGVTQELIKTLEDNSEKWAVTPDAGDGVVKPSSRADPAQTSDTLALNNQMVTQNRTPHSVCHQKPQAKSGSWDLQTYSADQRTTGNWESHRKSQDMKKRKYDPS

IC50 [1]: > 20 µM (inactive)
SMILES: CC(C)n1c(NCc2cc(Cl)ccc2O)nc2ccccc21

IC50 [2]: 15.9 µM (active) | IC50 [3]: 10.9 µM (active)
SMILES: O=C1CC(c2cccc([N+](=O)[O-])c2)c2cc3c(cc2N1)CCC3 (centres undefined)

IC50 [1]: > 20 µM (inactive)
SMILES: CCC1(c2ccccc2)NC(=O)N(CC(=O)Nc2cc(Cl)ccc2N2CCN(C)CC2)C1=O (centres undefined)

IC50 [4]: 5.26 µM (active)
SMILES: COCCN1C(=O)c2oc3ccccc3c(=O)c2C1c1ccc(OC)c(OC)c1 (centres undefined)

SMILES: Cc1cc(C)cc(NC(=O)c2cc(S(=O)(=O)N3CCCC3)cn2C)c1
EC50 [5]: > 112 µM (not active) | EC50 [6]: > 112 µM (not active)

SMILES: O=C/C(=C\Nc1ccccn1)c1nc2cc(Cl)ccc2o1
IC50 [7]: > 47.1 µM (inactive) | EC50 [8]: 67.7 µM (active) | EC50 [9]: 36.4 µM (active) | IC50 [10]: > 79 µM (inactive) | EC50 [11]: > 53 µM (inactive)

IC50 [2]: 2.13 µM (active) | IC50 [3]: 2.55 µM (active)
SMILES: Cc1cc(Cl)ccc1NC(=O)COC(=O)c1cc([N+](=O)[O-])ccc1N1CCOCC1

IC50 [2]: 5.77 µM (active) | IC50 [3]: 10.1 µM (active)
SMILES: CC1(C(=O)NS(=O)(=O)c2ccc(C#N)cc2)CCN1C(=O)Cc1ccc(Cl)cc1Cl (centres undefined)

SMILES: CCCNC(=O)Nc1ccc2c(c1)C(=O)N(C)[C@@H]1CC[C@@H](CC(=O)NCC3CCCCC3)O[C@H]1CO2
AC50 [12]: 2.28 µM (active)

SMILES: CCC(=O)N1[C@H](CN(C)C(C)=O)[C@H](c2ccc(-c3cccnc3)cc2)[C@@H]1CO
AC50 [12]: 0.561 µM (active)

IC50 [13]: > 50 µM (not active)
SMILES: Oc1ccc(/C=N/N(Cc2ccccc2)c2ccccc2)c(O)c1O

SMILES: CCC(=O)/N=c1\sc2cc(F)cc(F)c2n1C
EC50 [5]: > 112 µM (not active) | EC50 [6]: > 112 µM (not active)

SMILES: O=C(C[C@H]1C[C@@H]2c3cc(NC(=O)Nc4ccccc4)ccc3O[C@@H]2[C@H](CO)O1)NCc1ccccc1
AC50 [14]: 12.4 µM (active)

AC50 [15]: 18.7 µM (active) | IC50 [1]: > 20 µM (inactive)
SMILES: CSc1ccc2c(c1)C(N1CCN(C)CC1)Cc1ccccc1S2 (centres undefined) [METHIOTHEPIN MESYLATE]
